The record followed here is patent US20230391842A1, “RETRO-INVERSO PEPTIDES” (Herantis Pharma OYJ, priority 2019, published 2023).

In general, AUC(0-inf) refers to total exposure, with the tail of the curve extrapolated. Low values mean low exposure, high ones high exposure. Usually MRT stands for a mean duration of stay, worked out from the concentration-time curve. In general, Vd refers to a proportionality between amount in the body and measured concentration, not a real space. Read a high Vd as wide distribution into tissue. The half-life is the time in which the quantity being followed falls by half. A higher half-life goes with slow decline. One may read the Kd as the constant that tells how readily two partners part at equilibrium.

Data set [1] in a line: In vivo pharmacokinetics after intravenous administration to rats. The conditions noted are these: rat, 5 mg/kg intravenous bolus injection, male Sprague-Dawley rats, plasma; for clearance: read-out: CI. How it is done:
Test compounds were intravenously (i.v.) administered to male Spraque-Dawley rats (about six weeks old, n=3 per compound) at 5 mg/kg. Blood samples were collected from jugular vein through implanted in-dwelling catheters (250 μl blood) into labelled polypropylene tubes containing anticoagulant (heparin) at 2 min, 5 min, 15 min, 30 min, 1 h, 2 h and 4 h after compound administration and held on wet ice for a maximum of 30 minutes. The blood samples were centrifuged for plasma separation (4° C., 21100 G, 5 min). Tolbutamide 500 ng/ml with 10% TFA in acetonitrile or in MeCN was used as an internal standard solution. The standard samples were prepared into rat plasma by spiking the matrix into concentrations 2-10 000 ng/ml of the analyte, respectively, and otherwise treated as the samples. To 50 μl aliquots of sample plasma was added 200 μl of internal standard. Samples were mixed (150 rpm, 15 min) and centrifugated (3000 rpm, 15 min). The analytical method was optimized for reaction monitoring chromatographic (peak shape & retention) shifts and mass spectrometric properties (ionization efficiency, MS/MS detection). Supernatants were is analyzed by UHPLC-TOF mass spectrometry using electrospray ionization. […]

In data set [2] the test system is 3D in vitro model of blood brain barrier. The experiment in a line: Permeation in a 3D in vitro model of blood-brain barrier. The conditions noted are these: 500 nM, 2 h.
Data set [3] relates to dopaminergic TH-positive neurons injured with MPP+. Nature of the data set: Neuroprotective effect on dopaminergic TH-positive neurons injured with MPP+ (primary mesencephalic culture). The format is cell-based, rat. The conditions noted are these: MPP+ 4 μM, 48 h; for potency of retro-inverso peptides relative to their parent compounds and to full-length CDNF protein: stated for 'most cases'. How it is done: Neuroprotective effects of compounds 1-20 (SEQ ID NO:s 1-20, parent and retro-inverso) were tested in an in vitro model in which primary cultures of rat embryonic mesencephalic neurons were stressed with MPP+, the active metabolite of neurotoxin 1-methyl-4-phenyl-1,2,3,6-tetrahydropyridine (MPTP). MPP+ kills dopaminergic (TH-positive) neurons via a variety of toxic mechanisms, including mitochondrial dysfunction, generation of peroxynitrite, oxidative stress, ER stress and induction of apoptosis.
Rat dopaminergic neurons were cultured as described by Visanji et al., 2008. Briefly, the midbrains obtained from 15-day-old rat embryos (Janvier, France) were dissected, and the ventral portion of the mesencephalic flexure, a region of the developing brain rich in dopaminergic neurons, was used for the cell preparations. The midbrain cells were dissociated by trypsinization for 20 min at 37° C. […] The reaction was stopped by adding Dulbecco's modified Eagle's medium (DMEM) containing DNAase I grade II (0.5 mg/mL) and 10% of fetal calf serum (FCS). Cells were then mechanically dissociated by 3 passages through a 10 ml pipette. Cells were then centrifuged at 180×g for 10 min at +4° C. on a layer of BSA (3.5%) in L15 medium. The cell pellets was re-suspended in a defined culture serum-free medium consisting of Neurobasal (Invitrogen) supplemented with B27 (2%), L-glutamine (2 mM) and 2% of PS solution and 10 ng/ml of Brain-derived neurotrophic factor (BDNF) and 1 ng/mL of Glial-Derived Neurotrophic Factor (GDNF). […] The cells were seeded at a density of 40 000 cells/well in 96 well-plates (pre-coated with poly-L-lysine) and maintained in a humidified incubator at 37° C. in 5% CO2/95% air atmosphere. Half of the medium was changed every 2 days with fresh medium. On 96-wells plates, only 60 wells are used. To avoid any edge effect, the first and last lines and columns were not be used for culture and were filled with sterile water.
On day 6 of culture, CDNF or the compounds 1-20 (SEQ ID NO:s 1-20, parent and retro-inverso), were dissolved in culture medium and then pre-incubated with mesencephalic neurons for 4 hours before the MPP+ application. Four hours after the preincubation of the compounds, MPP+ was added to a final concentration of 4 μM, diluted in control medium still in presence of compounds for 48 h.
48 hours after intoxication, the cells were fixed by a solution of 4% paraformaldehyde in PBS, pH 7.3 for 20 min at room temperature. The cells were washed twice in PBS, and then permeabilized and non-specific sites were blocked with a solution of PBS containing 0.1% of saponin and 1% FCS for 15 min at room temperature. Next, the cells were incubated with (a) a monoclonal antibody anti-Tyrosine Hydroxylase (TH) produced in mouse at dilution of 1:1 0000 and with (b) a polyclonal antibody anti-alpha-synuclein (aSyn) antibody produced in rabbit at dilution of 1:400 in PBS containing 1% FCS, 0.1% saponin, for 2 h at room temperature.
48 hours after intoxication, the cell culture supernatant was removed, and the cells fixed by a solution of 4% paraformaldehyde in PBS, pH 7.3 for 20 min at room temperature. The cells were washed twice in PBS, and then permeabilized and non-specific sites were blocked with a solution of PBS containing 0.1% of saponin and 1% FCS for 15 min at room temperature. Then, the cells were incubated with a) a monoclonal Anti-Tyrosine Hydroxylase (TH) antibody produced in mouse at dilution of 1:10000 in PBS containing 1% FCS, 0.1% saponin, for 2 hours at room temperature, and b) a polyclonal anti-postsynaptic density protein-95 (PSD-95) antibody produced in rabbit at dilution of 1:200 in PBS containing 1% FCS, 0.1% saponin, for 2 h at room temperature. This antibody stains specifically synapses.
For each condition, pictures representing the whole well area were automatically acquired using ImageXpress (Molecular device) at 10× (20 pictures, for TH and a-syn) or at 40× magnification (60 pictures, for TH and PSD-95). […]

In data set [4] the test system is human hepatocytes. The experiment in a line: In vitro metabolic stability in human hepatocytes. The conditions noted are these: 1 μM, 37° C., 0-60 min.
Data set [5] addresses nucleotide-binding domain of GRP78 (GRP78-NBD). The experiment in a line: Binding to GRP78-NBD Kd (μM). From the text:
Table printed on a drawing sheet, FIG. 5B
Head of the field: Binding to GRP78-NBD Kd (μM)
GRP78-NBD is shown in a to translucent surface model along with its cartoon trace. The Cys-Cys bond in compound 14 (SEQ ID NO: 14) is shown in sticks.
The binding affinities are obtained by microscale thermophoresis-based cell free assay.
GSK2606414 was used to inhibit PERK signaling and KIRA6 to inhibit IRE1alpha signaling. * p<0.05, ** p<0.01, *** p<0.001, **** p<0.0001 one-way ANOVA test with post-hoc Fisher's LSD test for pairwise comparison vs MPP+ negative control. #p<0.05, ##p<0.01, ###p<0.001, ####p<0.0001 one-way ANOVA test with post-hoc Fisher's LSD test for pairwise comparison between effect of compound alone and its combination with UPR signal inhibitor.
Where the first naming reader finds the target: head: Binding to GRP78-NBD Kd (μM)

In data set [6] the test system is rat hepatocytes. Nature of the data set: In vitro metabolic stability in rat hepatocytes. The conditions noted are these: 1 μM, 37° C., 0-60 min.
The nature of data set [7]: In vitro metabolic stability in rat plasma. It is filed as in vitro ADME. Conditions: 1 μM, 37° C., up to 120 min. As for the experimental part:
Metabolic stability of the retro-inverso and native control peptides was studied using rat plasma over the time period of 120 min, with initial test concentration of 1 μM. Samples were analysed using LC/QE-orbitrap-MS. Calculated half-life is based on compound disappearance in rat plasma.
The incubation was terminated by acetonitrile. […] Stock solutions was prepared using 50% DMSO, and the compounds were spiked 1/100 to incubation to have final DMSO content of 0.5%. […] For analysis of compounds 13-14 and 19-20 stock solutions were prepared with PBS, and samples were analyzed by UHPLC-ToF mass spectrometry. Enalapril 1 μM was used as a disappearance rate control.

Positions of bridges follow the written chain, without caps; N, C: chain ends. Non-standard residues stand in square brackets, D forms with d. Residues, ends and D or L forms follow the SMILES beside them. No end group written: not given here.

For the compound `C[C@H](O)[C@@H](NC(=O)[C@H]1CSSC[C@@H](NC(=O)[C@@H](C)NC(=O)[C@@H](CCC(=O)O)NC(=O)[C@@H](CCCCN)NC(=O)[C@H](N)CO)C(=O)NCC(=O)NCC(=O)N[C@H](CCCCN)C(=O)N1)C(=O)N[C@H](CCC(=O)O)C(=O)NCC(=O)O` [Compound 12, SKEACGGKCTEG] (H-[dS][dK][dE][dA][dC]GG[dK][dC][dT][dE]G-OH; disulfide 5-9; N-terminus and C-terminus assumed), in data set [1], the AUC(0-inf) is 4310 ng·h/mL, the MRT is 22.9 min, the Vd was found to be 0.45 L/kg and the half-life came to 19.7 min. In addition, the clearance in data set [1] is 19.5 mL/min/kg. Further, the “ability to pass through the in vitro blood-brain barrier as compared to parent compound” value in data set [2] is given as “improved ability to pass”.
As to `C[C@H](O)[C@@H](N)C(=O)N[C@H](CCCCN)C(=O)N[C@H](CCC(=O)O)C(=O)N[C@H](C)C(=O)N[C@@H]1CSSC[C@H](C(=O)N[C@H](CCC(=O)O)C(=O)N[C@H](CCC(=O)O)C(=O)NCC(=O)O)NC(=O)[C@@H](CCCNC(=N)N)NC(=O)[C@@H](C)NC1=O` [Compound 6, TKEACARCEEG], in data set [1], the area under the curve AUC(0-inf) came out at 15500 ng·h/mL, the MRT is 29.4 min, the Vd turned out to be 0.16 L/kg and the half-life turned out to be 24.5 min. For the same compound, the clearance in data set [1] came out at 5.69 mL/min/kg. Further, the “ability to pass through the in vitro blood-brain barrier as compared to parent compound” value in data set [2] was “improved ability to pass”. For the same compound, the “potency of retro-inverso peptides relative to their parent compounds and to full-length CDNF protein” value in data set [3] is on record as “comparable”. The “stability in human hepatocytes as compared to parent compound” value in data set [4] was “significantly improved stability”. The dissociation constant (Kd) in data set [5] is 3.86 µM. Also, in data set [6], the “stability in rat hepatocytes as compared to parent compound” value is reported as “significantly improved stability”.
In the case of “KEACGKCTEGWDDLIKKLEKVRL ([dK][dE][dA][dC]G[dK][dC][dT][dE]G[dW][dD][dD][dL][dI][dK][dK][dL][dE][dK][dV][dR][dL]; disulfide 4-7) [Compound 4]”, in data set [2], the “ability to pass through the in vitro blood-brain barrier as compared to parent compound” value is “improved ability to pass”. For the same compound, the “potency of retro-inverso peptides relative to their parent compounds and to full-length CDNF protein” value in data set [3] is listed as “comparable”. Besides, the “stability in human hepatocytes as compared to parent compound” value in data set [4] is reported as “significantly improved stability”. The “stability in rat hepatocytes as compared to parent compound” value in data set [6] is given as “significantly improved stability”.
As to “EACARCEE ([dE][dA][dC][dA][dR][dC][dE][dE]; disulfide 3-6) [Compound 18] [listing 1 of 2 here]”, the dissociation constant Kd in data set [5] amounted to 1.23 µM.
With KEACARCEEGWSHLIQKLEAVRM [Compound 2], in data set [3], the “potency of retro-inverso peptides relative to their parent compounds and to full-length CDNF protein” value is reported as “comparable”.
“KEACARCEE ([dK][dE][dA][dC][dA][dR][dC][dE][dE]; disulfide 4-7) [Compound 14]”: the Kd in data set [5] was determined as 0.68 µM.
As for “KEACGKCTE ([dK][dE][dA][dC]G[dK][dC][dT][dE]; disulfide 4-7) [Compound 16]”, the “potency of retro-inverso peptides relative to their parent compounds and to full-length CDNF protein” value in data set [3] is on record as “comparable”.
Consider ETCKGCAE (disulfide 3-6) [Compound 19], for which the Kd in data set [5] was determined as 14.3 µM.
Take “SKEACGGKCTEG ([dS][dK][dE][dA][dC]GG[dK][dC][dT][dE]G; disulfide 5-9) [Compound 12]”: the Kd in data set [5] was 6.2 µM.
On to “TKEACAGRCEEG ([dT][dK][dE][dA][dC][dA]G[dR][dC][dE][dE]G; disulfide 5-9) [Compound 10]”, for which, in data set [3], the “potency of retro-inverso peptides relative to their parent compounds and to full-length CDNF protein” value was “comparable”.
“EACARCEE ([dE][dA][dC][dA][dR][dC][dE][dE]; disulfide 3-6) [Compound 18] [listing 2 of 2 here]”: in data set [3], the “potency of retro-inverso peptides relative to their parent compounds and to full-length CDNF protein” value was “comparable”.
For “GEECRACAEKT (disulfide 4-7) [Compound 5]”, the Kd in data set [5] was determined as 3.21 µM.
With EECRACAE (disulfide 3-6) [Compound 17], the Kd in data set [5] amounted to 0.3 µM.
In data set [1], `C[C@@H](NC(=O)[C@@H](CCC(=O)O)NC(=O)[C@H](N)CCCCN)C(=O)N[C@@H]1CSSC[C@H](C(=O)N[C@H](CCC(=O)O)C(=O)N[C@H](CCC(=O)O)C(=O)O)NC(=O)[C@@H](CCCNC(=N)N)NC(=O)[C@@H](C)NC1=O` [Compound 14, KEACARCEE] (H-[dK][dE][dA][dC][dA][dR][dC][dE][dE]-OH; disulfide 4-7; N-terminus and C-terminus assumed) gave a total exposure AUC(0-inf) of 7500 ng·h/mL, an MRT of 19.2 min, a Vd of 0.21 L/kg and a half-life of 18.4 min. The clearance in data set [1] was found to be 11.4 mL/min/kg. Moreover, the “stability in rat plasma as compared to parent compound” value in data set [7] is recorded as “significantly improved stability”. In addition, in data set [6], the “stability in rat hepatocytes as compared to parent compound” value was “significantly improved stability”.
In the case of “CDNF: full-length cerebral dopamine neurotrophic factor protein (rhCDNF), unconventional neurotrophic factor”, in data set [3], the “alpha-synuclein (aSyn) aggregates / inclusions in TH-positive neurons” value is recorded as “reducing accumulation”; the “protection of TH-positive neurons, their neurites and synapses from MPP+ toxicity” value is reported as “neuroprotective”.
